Measurements: US20250057994A1, “LABELED COMPOUNDS AND CALCIUM SENSING RECEPTOR LIGANDS FOR IMAGING AND USES THEREOF” (The University of North Carolina at Chapel Hill, priority 2021, published 2025)

Experiments:
[1] = In vivo acute toxicity study with overdose of cold standard; parameters: species or system JAX Swiss Outbred mice; details: for ALP (alkaline phosphatase) / ALT (alanine aminotransferase) / AST (aminotransferase) / BUN (blood urea nitrogen) / creatinine: mice plasma
Description: In vivo Toxicity study. An In vivo acute toxicity study of [^19F]F-cinacalcet was carried out in JAX Swiss Outbred mice. The mice were injected intravenously with an overdose of cold standard [^19F]F-cinacalcet (57.6 μg, ˜1000 times greater than the radiotracer [^18F]F-cinacalcet dose). Plasma samples were collected and analyzed at various time points. […] Alkaline phosphatase (ALP) and alanine transaminase (ALT) are two important biological indicators associated with liver function. […] It is very common to see a transient increase in blood AST after drug administration, which usually has no actual pathological significance. Blood urea nitrogen (BUN) and creatinine are two critical indicators for evaluating kidney function. There were no significant changes in BUN and creatinine levels in the mice injected with [^19F]F-cinacalcet compared with the vehicle controls. In addition, histopathological staining was performed on the kidney, liver, and heart tissues collected at different time points. […] The basic structures of the glomerulus, renal tubulus, liver lobule central vein, and cardiac muscle fibers remained intact.

CSR = target: T1, CSR (Homo sapiens, UniProt P41180); experiment: Cell uptake and specific blocking assays in Hcc827 cells; details: blocker 100 μM
T1 sequence (P41180 20-1078): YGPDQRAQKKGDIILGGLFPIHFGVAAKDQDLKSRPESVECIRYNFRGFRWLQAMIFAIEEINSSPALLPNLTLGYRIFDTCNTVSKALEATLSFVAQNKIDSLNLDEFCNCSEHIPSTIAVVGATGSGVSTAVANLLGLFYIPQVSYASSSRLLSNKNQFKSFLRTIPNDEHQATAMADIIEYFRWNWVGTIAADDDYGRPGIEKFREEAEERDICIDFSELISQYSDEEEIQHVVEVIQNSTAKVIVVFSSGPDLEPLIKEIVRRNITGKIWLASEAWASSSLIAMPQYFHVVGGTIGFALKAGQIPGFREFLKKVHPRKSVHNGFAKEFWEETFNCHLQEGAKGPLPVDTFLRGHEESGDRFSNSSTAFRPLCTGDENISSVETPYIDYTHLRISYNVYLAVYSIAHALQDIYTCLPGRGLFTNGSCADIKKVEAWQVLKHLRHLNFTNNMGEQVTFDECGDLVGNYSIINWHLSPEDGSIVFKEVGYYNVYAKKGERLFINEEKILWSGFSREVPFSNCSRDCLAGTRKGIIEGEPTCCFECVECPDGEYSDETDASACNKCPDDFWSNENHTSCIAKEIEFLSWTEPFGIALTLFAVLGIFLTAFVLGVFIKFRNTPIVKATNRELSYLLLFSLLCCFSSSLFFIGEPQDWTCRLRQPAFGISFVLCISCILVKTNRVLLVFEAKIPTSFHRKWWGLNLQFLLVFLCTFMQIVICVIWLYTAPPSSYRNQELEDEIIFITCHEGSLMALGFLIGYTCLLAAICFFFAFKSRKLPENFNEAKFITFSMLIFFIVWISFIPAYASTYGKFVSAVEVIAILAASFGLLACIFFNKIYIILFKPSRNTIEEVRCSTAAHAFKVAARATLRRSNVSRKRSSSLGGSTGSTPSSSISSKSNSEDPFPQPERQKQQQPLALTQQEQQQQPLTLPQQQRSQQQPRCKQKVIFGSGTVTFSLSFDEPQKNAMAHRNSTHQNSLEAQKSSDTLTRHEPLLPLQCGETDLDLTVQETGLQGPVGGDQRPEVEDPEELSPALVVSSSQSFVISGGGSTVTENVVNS

With `C[C@@H](NCCCc1cccc(C(F)(F)F)c1)c1ccc(F)c2ccccc12` [[^19F]F-ZW-cinacalcet] the “ALP (alkaline phosphatase)” value ([1]; 2 weeks after overdose) was 80.33 ± 9.00 U/L, the “ALT (alanine aminotransferase)” value ([1]; 2 weeks after overdose) was 24.67 ± 0.94 U/L and the “AST (aminotransferase)” value ([1]; 2 weeks after overdose) was 82 ± 28.6 U/L. The “BUN (blood urea nitrogen)” value ([1]; 2 weeks after overdose) was 18 ± 0.82 mg/dL, the creatinine ([1]; 2 weeks after overdose) was 0.18 ± 0.01 mg/dL and the “ALP (alkaline phosphatase)” value ([1]; 1 h after overdose) was 87.67 ± 13.70 U/L. The “ALT (alanine aminotransferase)” value ([1]; 1 h after overdose) was 29.33 ± 3.10 U/L, the “AST (aminotransferase)” value ([1]; 1 h after overdose) was 82.67 ± 21.68 U/L and the “BUN (blood urea nitrogen)” value ([1]; 1 h after overdose) was 17 ± 1.41 mg/dL. The creatinine ([1]; 1 h after overdose) was 0.24 ± 0.09 mg/dL, the “ALP (alkaline phosphatase)” value ([1]; 24 h after overdose) was 54 ± 9.09 U/L and the “ALT (alanine aminotransferase)” value ([1]; 24 h after overdose) was 31.33 ± 9.10 U/L. For the same compound, the “AST (aminotransferase)” value ([1]; 24 h after overdose) was 104.67 ± 45.38 U/L, the “BUN (blood urea nitrogen)” value ([1]; 24 h after overdose) was 18.33 ± 1.25 mg/dL and the creatinine ([1]; 24 h after overdose) was 0.25 ± 0.11 mg/dL. The Acute toxicity ([1]; mice, i.v. overdose 57.6 μg) was “no acute toxicity”, the “Mortality and health changes” value ([1]; mice, i.v. overdose 57.6 μg, study period) was “No animal deaths and significant health changes were observed” and the “Histopathology of kidney, liver and heart (HE staining)” value ([1]; mice, i.v. overdose, different time points) was “no obvious pathological changes”. For the same compound, the “Block of [18F]F-ZW-cinacalcet uptake” value (CSR; 20 min post incubation) was 89.9% and the “Block of [18F]F-ZW-cinacalcet uptake” value (CSR; other time points) was “More than 87%”.
